From ChEMBL document CHEMBL1201862, “PubChem BioAssay data set” (2004)
The source made the active and inactive calls.

Legend:
Leucine aminopeptidase = molecular target: T1, Leucine aminopeptidase (Plasmodium falciparum 3D7, UniProt Q8IL11); test: P. falciparum M17LAP inhibitors, primary screen, biochemical, fluorogenic H-Leu-NHMec substrate, 1536-well (AID 1619); type: functional
T1 sequence (Q8IL11 whole entry): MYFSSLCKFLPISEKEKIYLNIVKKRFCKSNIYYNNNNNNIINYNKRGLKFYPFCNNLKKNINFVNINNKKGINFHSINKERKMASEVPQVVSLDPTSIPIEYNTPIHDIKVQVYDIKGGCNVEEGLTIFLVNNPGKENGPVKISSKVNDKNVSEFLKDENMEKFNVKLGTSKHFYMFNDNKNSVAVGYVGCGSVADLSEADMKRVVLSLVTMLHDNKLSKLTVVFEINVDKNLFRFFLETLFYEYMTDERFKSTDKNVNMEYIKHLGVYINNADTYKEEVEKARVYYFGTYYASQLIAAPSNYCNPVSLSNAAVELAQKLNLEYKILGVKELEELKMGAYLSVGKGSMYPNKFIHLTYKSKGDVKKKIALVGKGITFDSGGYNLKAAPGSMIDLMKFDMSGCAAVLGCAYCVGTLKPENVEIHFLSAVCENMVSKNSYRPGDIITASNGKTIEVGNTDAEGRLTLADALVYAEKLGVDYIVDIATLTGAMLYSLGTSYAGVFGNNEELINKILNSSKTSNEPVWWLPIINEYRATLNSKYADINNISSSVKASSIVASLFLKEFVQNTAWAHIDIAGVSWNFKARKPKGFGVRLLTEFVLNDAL

Aminopeptidase N = molecular target: T2, Aminopeptidase N (Plasmodium falciparum FcB1/Columbia, UniProt O96935); test: P. falciparum M1AAP inhibitors, biochemical, fluorogenic H-Leu-NHMec substrate, 1536-well (AID 1445); set-up: species or system Plasmodium falciparum 3D7, 3D7
T2 sequence (O96935 whole entry): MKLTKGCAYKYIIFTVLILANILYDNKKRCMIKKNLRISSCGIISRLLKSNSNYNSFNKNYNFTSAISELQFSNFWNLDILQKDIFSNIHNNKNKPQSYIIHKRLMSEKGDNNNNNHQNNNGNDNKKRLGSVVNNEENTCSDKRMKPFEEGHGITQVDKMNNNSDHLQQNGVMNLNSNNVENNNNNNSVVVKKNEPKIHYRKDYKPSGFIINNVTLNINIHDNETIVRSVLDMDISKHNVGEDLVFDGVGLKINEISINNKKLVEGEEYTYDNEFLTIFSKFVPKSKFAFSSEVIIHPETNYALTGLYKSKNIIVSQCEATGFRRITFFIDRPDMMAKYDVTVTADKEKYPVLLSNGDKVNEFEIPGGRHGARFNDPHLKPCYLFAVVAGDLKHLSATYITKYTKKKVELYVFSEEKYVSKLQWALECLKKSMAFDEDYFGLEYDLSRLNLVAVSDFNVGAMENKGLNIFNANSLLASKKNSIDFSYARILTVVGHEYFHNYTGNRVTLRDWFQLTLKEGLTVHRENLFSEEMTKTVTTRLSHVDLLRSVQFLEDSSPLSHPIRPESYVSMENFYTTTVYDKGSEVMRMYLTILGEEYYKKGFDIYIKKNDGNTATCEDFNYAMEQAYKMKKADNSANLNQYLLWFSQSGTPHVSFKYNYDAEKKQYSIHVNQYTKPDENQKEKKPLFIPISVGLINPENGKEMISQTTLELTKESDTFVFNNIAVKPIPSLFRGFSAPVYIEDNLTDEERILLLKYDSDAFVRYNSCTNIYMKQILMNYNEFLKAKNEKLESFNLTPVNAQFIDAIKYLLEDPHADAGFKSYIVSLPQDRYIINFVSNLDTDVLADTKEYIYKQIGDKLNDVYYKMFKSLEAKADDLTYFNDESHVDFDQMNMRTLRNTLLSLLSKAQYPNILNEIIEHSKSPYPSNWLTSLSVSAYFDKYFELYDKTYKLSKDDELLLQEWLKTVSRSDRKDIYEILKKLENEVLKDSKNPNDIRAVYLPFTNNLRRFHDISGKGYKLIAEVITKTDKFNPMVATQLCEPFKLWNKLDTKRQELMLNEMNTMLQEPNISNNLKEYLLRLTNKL

[1] = Luminescence Cell-Based Dose Confirmation HTS to Identify Activators of 5'UTR Stem-Loop Driven Alpha-Synuclein mRNA Translation in H4 Neuroglioblastoma Cells. [Related pubchem assays: 1829 (Project Summary), 1814 (Primary HTS)]; type: functional
[2] = Luminescence Cell-Based Dose Response HTS to Identify Activators of Luciferase Translation or Activity in H4 […] Cells. [Related pubchem assays: 1829 (Project Summary), 1814 (Primary HTS)]; type: functional
H4 = test: Luminescence Cell-Based Dose Response HTS to Identify Activators of 5'UTR Stem-Loop Driven Prion Protein mRNA Translation in H4 Neuroglioblastoma Cells. [Related pubchem assays: 1829 (Project Summary), 1814 (Primary HTS)]; type: functional; details: Homo sapiens
[3] = THP-1 cell cytotoxicity, dose response, cytotoxicity control for non-replicating M. tuberculosis project (AID 489025); type: functional
[4] = Vero E6 cell cytotoxicity, dose response, cytotoxicity control for non-replicating M. tuberculosis project, secondary assay (AID 492998); type: functional, VeroE6; details: Vero C1008
cells = type: functional
Beta-galactosidase = Beta-galactosidase (Escherichia coli, UniProt Q8VNN2); test: beta-galactosidase enzyme inhibitors and activators, dose response, artefact control for CCR6 antagonist project, biochemical, E. coli enzyme, set 3 (AID 504712); type: functional
Chain of Beta-galactosidase (Q8VNN2 whole entry): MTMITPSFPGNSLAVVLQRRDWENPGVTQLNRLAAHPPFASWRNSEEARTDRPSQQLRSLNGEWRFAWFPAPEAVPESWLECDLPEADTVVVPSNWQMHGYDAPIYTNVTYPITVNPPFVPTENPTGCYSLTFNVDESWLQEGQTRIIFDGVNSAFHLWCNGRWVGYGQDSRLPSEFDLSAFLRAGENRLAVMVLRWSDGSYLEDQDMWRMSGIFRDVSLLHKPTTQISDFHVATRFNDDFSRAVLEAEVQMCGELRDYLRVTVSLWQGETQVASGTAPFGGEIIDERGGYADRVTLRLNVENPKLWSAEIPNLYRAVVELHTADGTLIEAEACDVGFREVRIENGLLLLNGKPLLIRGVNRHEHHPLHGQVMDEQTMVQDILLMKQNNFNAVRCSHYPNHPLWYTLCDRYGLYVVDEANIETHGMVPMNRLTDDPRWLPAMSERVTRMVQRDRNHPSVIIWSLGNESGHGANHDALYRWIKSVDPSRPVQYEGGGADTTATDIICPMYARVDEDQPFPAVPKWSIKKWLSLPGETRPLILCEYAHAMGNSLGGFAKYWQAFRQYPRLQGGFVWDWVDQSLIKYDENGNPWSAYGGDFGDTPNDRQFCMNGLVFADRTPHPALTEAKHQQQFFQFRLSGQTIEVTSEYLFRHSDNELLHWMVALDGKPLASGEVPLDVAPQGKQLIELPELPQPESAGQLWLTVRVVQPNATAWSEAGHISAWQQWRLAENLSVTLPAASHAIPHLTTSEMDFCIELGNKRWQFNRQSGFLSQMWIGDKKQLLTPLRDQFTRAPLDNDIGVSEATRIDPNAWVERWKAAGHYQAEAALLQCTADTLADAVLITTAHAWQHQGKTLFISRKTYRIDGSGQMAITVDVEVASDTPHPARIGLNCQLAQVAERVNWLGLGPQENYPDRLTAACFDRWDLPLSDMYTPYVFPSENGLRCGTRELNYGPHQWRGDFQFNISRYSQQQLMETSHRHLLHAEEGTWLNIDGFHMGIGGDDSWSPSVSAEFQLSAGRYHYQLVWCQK

[5] = molecular target: Peroxisome proliferator-activated receptor gamma/Nuclear receptor coactivator 2 (Homo sapiens, UniProt P37231); type: functional;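 note: agonist potency for raising coactivator recruitment to the receptor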
Chain of Peroxisome proliferator-activated receptor gamma/Nuclear receptor coactivator 2 (P37231 whole entry): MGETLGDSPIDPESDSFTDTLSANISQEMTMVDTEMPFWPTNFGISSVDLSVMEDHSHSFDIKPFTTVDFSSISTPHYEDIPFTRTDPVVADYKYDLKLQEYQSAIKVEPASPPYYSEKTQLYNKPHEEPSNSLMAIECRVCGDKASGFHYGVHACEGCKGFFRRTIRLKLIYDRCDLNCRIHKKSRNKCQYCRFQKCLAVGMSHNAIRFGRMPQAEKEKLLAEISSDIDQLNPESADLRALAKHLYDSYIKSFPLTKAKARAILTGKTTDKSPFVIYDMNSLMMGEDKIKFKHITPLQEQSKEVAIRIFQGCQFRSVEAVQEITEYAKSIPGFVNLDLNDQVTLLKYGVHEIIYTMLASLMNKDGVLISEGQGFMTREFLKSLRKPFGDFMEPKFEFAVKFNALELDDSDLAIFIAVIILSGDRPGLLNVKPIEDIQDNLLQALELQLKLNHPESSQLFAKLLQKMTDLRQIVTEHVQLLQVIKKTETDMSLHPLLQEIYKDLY
Chain of Peroxisome proliferator-activated receptor gamma/Nuclear receptor coactivator 2 (Q15596 whole entry, further chain): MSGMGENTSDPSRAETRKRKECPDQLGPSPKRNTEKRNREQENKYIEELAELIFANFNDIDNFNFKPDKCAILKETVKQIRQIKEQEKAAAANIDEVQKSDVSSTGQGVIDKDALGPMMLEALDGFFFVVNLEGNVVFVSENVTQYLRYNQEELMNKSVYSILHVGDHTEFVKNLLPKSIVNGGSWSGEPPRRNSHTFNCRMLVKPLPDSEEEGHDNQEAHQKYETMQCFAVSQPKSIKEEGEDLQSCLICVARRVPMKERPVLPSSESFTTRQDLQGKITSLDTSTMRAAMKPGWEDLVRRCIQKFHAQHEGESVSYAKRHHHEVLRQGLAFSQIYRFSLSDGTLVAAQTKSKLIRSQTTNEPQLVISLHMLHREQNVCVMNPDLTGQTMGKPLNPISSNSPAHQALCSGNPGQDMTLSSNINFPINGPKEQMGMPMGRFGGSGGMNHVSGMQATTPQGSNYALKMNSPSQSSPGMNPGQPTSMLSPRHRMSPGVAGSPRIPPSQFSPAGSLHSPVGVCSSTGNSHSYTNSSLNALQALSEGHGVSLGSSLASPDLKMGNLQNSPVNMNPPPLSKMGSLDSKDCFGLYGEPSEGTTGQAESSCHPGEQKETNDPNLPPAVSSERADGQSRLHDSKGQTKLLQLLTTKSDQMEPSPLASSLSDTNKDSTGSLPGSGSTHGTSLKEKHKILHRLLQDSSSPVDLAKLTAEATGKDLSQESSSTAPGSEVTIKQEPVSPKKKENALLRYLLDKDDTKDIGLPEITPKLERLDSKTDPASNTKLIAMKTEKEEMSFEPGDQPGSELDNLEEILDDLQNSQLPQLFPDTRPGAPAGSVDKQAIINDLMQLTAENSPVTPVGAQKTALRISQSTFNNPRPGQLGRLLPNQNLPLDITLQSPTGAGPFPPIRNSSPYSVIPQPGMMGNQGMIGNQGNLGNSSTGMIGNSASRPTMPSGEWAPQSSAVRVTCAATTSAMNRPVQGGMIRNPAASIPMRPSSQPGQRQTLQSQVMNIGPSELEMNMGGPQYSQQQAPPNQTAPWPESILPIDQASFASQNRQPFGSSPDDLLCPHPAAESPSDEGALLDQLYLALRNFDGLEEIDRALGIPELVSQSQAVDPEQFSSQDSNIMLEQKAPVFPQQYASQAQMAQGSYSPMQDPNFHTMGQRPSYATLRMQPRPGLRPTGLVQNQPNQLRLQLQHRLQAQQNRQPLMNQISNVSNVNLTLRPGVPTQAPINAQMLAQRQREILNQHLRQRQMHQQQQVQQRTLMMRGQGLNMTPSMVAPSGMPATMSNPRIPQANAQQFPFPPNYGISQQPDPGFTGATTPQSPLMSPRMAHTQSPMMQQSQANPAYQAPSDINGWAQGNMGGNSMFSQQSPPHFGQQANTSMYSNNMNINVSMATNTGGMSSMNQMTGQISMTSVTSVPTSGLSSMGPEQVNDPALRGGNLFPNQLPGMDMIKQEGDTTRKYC

[6] = molecular target: Peroxisome proliferator-activated receptor gamma/Nuclear receptor coactivator 1 (Homo sapiens, UniProt P37231); type: functional;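 note: agonist potency as compounds enhance coactivator SRC-1 recruitment to PPARgamma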
[7] = molecular target: Peroxisome proliferator-activated receptor gamma/Nuclear receptor coactivator 3 (Homo sapiens, UniProt P37231); type: functional;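 note: agonist potency for raising coactivator recruitment to the receptor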
Chain of Peroxisome proliferator-activated receptor gamma/Nuclear receptor coactivator 3 (P37231 whole entry): as the sequence (P37231 whole entry) above
Chain of Peroxisome proliferator-activated receptor gamma/Nuclear receptor coactivator 3 (Q9Y6Q9 whole entry, further chain): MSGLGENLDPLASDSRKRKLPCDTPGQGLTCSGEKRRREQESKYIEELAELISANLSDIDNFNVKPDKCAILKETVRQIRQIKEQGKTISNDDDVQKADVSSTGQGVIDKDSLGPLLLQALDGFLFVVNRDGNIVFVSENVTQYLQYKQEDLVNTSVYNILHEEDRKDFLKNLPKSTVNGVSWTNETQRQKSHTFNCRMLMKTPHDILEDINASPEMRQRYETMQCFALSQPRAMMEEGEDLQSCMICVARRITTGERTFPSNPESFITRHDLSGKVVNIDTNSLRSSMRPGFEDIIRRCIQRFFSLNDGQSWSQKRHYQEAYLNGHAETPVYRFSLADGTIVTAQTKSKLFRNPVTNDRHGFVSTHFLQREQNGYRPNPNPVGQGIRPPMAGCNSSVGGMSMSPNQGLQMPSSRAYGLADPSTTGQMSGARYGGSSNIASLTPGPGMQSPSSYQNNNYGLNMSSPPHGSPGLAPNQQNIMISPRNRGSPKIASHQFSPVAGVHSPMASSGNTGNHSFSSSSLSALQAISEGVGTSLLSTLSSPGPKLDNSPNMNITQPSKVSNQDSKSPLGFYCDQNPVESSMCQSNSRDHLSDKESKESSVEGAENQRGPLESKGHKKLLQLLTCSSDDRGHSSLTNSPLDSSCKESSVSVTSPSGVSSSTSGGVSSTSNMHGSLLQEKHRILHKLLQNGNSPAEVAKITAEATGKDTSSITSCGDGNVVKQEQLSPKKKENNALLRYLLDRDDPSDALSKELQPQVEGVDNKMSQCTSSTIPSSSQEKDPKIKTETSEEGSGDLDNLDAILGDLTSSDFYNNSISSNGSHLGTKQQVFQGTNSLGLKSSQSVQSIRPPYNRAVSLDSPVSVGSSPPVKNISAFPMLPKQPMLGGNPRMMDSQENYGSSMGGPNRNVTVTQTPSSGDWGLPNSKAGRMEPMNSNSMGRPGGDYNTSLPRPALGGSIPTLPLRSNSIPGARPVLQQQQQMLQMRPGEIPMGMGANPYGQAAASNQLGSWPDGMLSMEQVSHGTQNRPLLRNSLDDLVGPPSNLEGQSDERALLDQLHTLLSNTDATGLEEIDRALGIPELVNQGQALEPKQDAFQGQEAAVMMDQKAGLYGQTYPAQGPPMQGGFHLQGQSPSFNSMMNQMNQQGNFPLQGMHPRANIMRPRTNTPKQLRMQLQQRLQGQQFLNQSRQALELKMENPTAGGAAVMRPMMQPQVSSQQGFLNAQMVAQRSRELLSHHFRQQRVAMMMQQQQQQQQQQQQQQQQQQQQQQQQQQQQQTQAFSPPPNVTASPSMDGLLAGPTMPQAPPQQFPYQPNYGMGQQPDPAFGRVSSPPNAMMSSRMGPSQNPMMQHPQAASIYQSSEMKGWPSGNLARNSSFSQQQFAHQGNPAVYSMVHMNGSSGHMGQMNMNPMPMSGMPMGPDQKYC

[8] = molecular target: T3, Short transient receptor potential channel 4 (Mus musculus, UniProt Q9QUQ5); test: mouse TRPC4 channel activators, dose response, cell-based, HEK293 TRPC4/mu-opioid, Fluo-4 calcium (AID 434937); type: functional
T3 sequence (Q9QUQ5 whole entry): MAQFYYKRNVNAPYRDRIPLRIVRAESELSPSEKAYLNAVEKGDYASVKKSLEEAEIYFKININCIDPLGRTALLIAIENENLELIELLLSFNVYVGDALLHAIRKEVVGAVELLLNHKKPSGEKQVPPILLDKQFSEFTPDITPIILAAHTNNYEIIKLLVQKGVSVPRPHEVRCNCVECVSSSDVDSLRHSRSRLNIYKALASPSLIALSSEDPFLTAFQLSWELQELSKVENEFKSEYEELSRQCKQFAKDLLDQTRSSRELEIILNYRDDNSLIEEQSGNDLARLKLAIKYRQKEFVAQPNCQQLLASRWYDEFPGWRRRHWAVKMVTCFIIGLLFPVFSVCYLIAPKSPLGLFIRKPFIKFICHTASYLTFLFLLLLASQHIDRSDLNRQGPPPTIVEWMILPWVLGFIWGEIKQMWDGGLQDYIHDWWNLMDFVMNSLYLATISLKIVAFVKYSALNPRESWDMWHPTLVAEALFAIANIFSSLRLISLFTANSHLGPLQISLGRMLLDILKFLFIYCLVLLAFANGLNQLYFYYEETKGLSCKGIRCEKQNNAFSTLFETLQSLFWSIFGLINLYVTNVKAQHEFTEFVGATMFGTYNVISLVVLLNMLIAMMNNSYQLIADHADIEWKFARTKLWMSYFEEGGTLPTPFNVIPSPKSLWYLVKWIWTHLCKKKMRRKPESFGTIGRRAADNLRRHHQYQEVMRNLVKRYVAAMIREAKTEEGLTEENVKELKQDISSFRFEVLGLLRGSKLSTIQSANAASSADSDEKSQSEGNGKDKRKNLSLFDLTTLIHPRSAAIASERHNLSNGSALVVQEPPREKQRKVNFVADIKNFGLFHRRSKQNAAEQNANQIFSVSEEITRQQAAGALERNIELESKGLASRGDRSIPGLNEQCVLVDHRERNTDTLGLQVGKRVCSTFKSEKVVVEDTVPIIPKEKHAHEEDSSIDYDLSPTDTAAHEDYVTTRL

[9] = molecular target: Induced myeloid leukemia cell differentiation protein Mcl-1 (Homo sapiens, UniProt Q07820); type: functional
[10] = tested on: Streptococcus sp. 'group A'; test: growth inhibition of control SK(-) GAS strain, dose response, counter-screen for streptokinase expression inhibitor project, luminescence, kanamycin, BacTiterGlo, confirmation (AID 1900); type: functional, organism-based
Streptokinase A = molecular target: T4, Streptokinase A (Streptococcus pyogenes serotype M1, UniProt P10520); test: S. pyogenes streptokinase expression inhibitors, potency, dose response, plasminogen activation absorbance, OD405 (AID 1914); type: functional, Streptococcus pyogenes M1 GAS;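 note: secreted streptokinase activity via plasminogen activation per viability signal from cell pellet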
T4 sequence (P10520 whole entry): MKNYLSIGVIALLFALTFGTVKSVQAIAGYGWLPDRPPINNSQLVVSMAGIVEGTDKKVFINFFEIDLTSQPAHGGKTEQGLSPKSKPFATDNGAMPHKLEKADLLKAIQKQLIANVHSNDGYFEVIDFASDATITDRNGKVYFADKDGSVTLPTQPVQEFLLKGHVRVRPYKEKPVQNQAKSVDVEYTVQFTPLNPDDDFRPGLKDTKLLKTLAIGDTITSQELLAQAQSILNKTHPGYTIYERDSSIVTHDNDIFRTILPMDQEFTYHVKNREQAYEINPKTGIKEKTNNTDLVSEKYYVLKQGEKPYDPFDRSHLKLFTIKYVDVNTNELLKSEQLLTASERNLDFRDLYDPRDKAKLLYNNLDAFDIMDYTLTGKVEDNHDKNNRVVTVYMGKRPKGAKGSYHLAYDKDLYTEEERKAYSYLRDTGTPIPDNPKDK

Streptococcus = test: Group A Streptococcus viability loss, dose response, counter-screen for streptokinase expression inhibitor project, luminescence, BacTiterGlo (AID 1915); type: functional, organism-based;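 note: potency for reduction of bacterial viability or growth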
Vero = test: cells; type: functional; details: Chlorocebus sabaeus
[11] = cytotoxicity in HEK-293T cells, dose response, cytotoxicity control for TCR NF-kB inhibitor project, luminescence, T-cell screen hits (AID 489026); type: functional, cell-based;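 note: cells exposed to compound about 14 hours before the viability readout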
[12] = A cytotoxicity screen of small molecule inhibitors of the PhoP region in Salmonella typhi identified in the primary screen. [Related pubchem assays: 1850, 1864, 1985 ]; type: functional

Structure (SMILES): CCOC(=O)c1c(NC(=O)CSc2nnc(C)c(=O)[nH]2)sc2c1CCCC2
- IC50 (Leucine aminopeptidase): 9.34 µM (active)
- IC50 (Aminopeptidase N): 62.1 µM (active)

Structure (SMILES): CCOC(=O)c1cnc(Nc2nc3ccccc3o2)nc1CSC(=S)N1CCCCC1
- EC50 [1]: > 60 µM (not active)
- EC50 [2]: 7.71 µM (active)
- EC50 (H4): > 120 µM (not active)
- CC50 [3]: > 40 µM (active)
- CC50 [4]: 9.21 µM (active)
- IC50 (cells): 2.4 µM (active)

Structure (SMILES): CC1Cc2ccccc2N1C(=S)NC(=O)c1cccc(Br)c1 (stereo not drawn)
- IC50 (Beta-galactosidase): > 66.6 µM (inactive)

Structure (SMILES): COc1ccc(-c2cc(C(F)F)n3ncc(C(=O)N4CCCc5ccccc54)c3n2)cc1
- EC50 [5]: > 79.4 µM (not active)
- EC50 [6]: > 79.4 µM (not active)
- EC50 [7]: > 79.4 µM (not active)

Structure (SMILES): CC(=O)N1CCc2cc(Br)cc(S(=O)(=O)NCCCN(C)Cc3ccccc3)c21
- EC50 [8]: 0.149 µM (active)

Structure (SMILES): O=C(CNC(=O)C(c1ccccc1)c1ccccc1)N/N=C/c1cccnc1
- IC50 [9]: 5.72 µM (not active)

Structure (SMILES): Cc1ccccc1C(=O)NNC(=S)NC(=O)c1cccs1
- EC50 [10]: 3.53 µM (active)
- EC50 (Streptokinase A): > 150 µM (not active)
- EC50 (Streptococcus): 18.2 µM (active)
- EC50 [8]: 5.96 µM (active)
- CC50 (Vero): > 25 µM (active)

Structure (SMILES): CCCCCCCOc1ccc(OC(=O)c2ccncc2)cc1
- IC50 [11]: > 80 µM (inactive)

Structure (SMILES): Clc1cccc(OCCN2CCN(CCOc3cccc(Cl)c3)CC2)c1
- CC50 [3]: 31.3 µM (active)
- CC50 [4]: > 20 µM (active)
- IC50 (cells): 23.9 µM (active)

Structure (SMILES): CCOC(=O)C1CCCN(S(=O)(=O)c2cc(Br)cc3c2N(C(=O)C2CC2)CC3)C1 (stereo not drawn)
- EC50 [5]: > 79.4 µM (not active)
- EC50 [6]: > 79.4 µM (not active)
- EC50 [7]: > 79.4 µM (not active)

Structure (SMILES): CCOC(=O)c1ccccc1NC(=O)c1cn(-c2ccc(C)c(C)c2)c(=O)c2ccccc12
- EC50 [5]: > 79.4 µM (not active)
- EC50 [6]: > 79.4 µM (not active)
- EC50 [7]: > 79.4 µM (not active)

Structure (SMILES): CCOC(=O)C1(Cc2cccc(F)c2)CCN(Cc2cnc(C)s2)CC1
- EC50 [8]: 0.944 µM (active)

Structure (SMILES): Cc1cc(C)c(C(=O)CSc2nnc(-c3ccccc3Br)o2)cc1C
- EC50 [5]: 32.6 µM (not active)
- EC50 [6]: 51.9 µM (not active)
- EC50 [7]: 69.8 µM (not active)

Structure (SMILES): COc1ccc([C@H]2CC(=O)C=C(c3ccc(OC)cc3OC)C2)cc1
- IC50 [11]: > 80 µM (inactive)

Structure (SMILES): O=C(c1cc(COc2ccc(F)cc2Cl)on1)N1CCCC(OCc2cccnc2)C1 (stereo not drawn)
- EC50 [5]: > 79.4 µM (not active)
- EC50 [6]: > 79.4 µM (not active)
- EC50 [7]: > 79.4 µM (not active)

Structure (SMILES): C/C(=N\NC(=S)NCCc1ccccc1)c1ccc(Cl)cc1Cl
- EC50 [10]: 4.66 µM (active)
- EC50 (Streptokinase A): > 150 µM (inconclusive)
- EC50 (Streptococcus): 21.2 µM (active)
- IC50 (Beta-galactosidase): > 66.6 µM (inactive)

Structure (SMILES): Cc1cc(CSC(=N)N)c(CSC(=N)N)cc1C
- EC50 [12]: > 50 µM (active)
- EC50 [8]: 2.11 µM (active)
